These results are taken from patent publication US7396944B2, “Thiophene derivatives, their manufacture and use as pharmaceutical agents” (Hoffmann-La Roche Inc., priority 2004, dated 2008).

Where only a bound is given, the exact number is not on record here.

The target of the first assay is T1, recombinant HDAC-1 (Homo sapiens, UniProt Q13547).
T1 construct: made in house; host or cells: HEK 293 cells (ATCC-No. CRL 1573)
T1 sequence (Q13547 whole entry, species assumed): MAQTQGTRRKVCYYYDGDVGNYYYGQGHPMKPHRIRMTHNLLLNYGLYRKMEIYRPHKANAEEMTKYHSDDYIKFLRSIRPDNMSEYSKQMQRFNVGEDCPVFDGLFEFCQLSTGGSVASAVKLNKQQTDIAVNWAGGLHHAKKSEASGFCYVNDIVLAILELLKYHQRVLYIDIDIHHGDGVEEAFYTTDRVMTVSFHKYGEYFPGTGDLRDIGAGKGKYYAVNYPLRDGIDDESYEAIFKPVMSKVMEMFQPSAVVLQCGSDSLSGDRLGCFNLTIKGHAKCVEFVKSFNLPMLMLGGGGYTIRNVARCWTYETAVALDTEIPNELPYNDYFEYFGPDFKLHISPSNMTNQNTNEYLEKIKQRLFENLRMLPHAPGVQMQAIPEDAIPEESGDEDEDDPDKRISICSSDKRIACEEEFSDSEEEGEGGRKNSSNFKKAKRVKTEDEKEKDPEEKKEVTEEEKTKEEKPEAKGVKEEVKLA
In words: HDAC biochemical quench assay. The settings on record: recombinant HDAC-1 purified from HEK 293 cells, histone H4 peptide substrate 1 μM, 90 min. From the text:
The function of histone deacetylase (HDAC) is the deacetylation of lysines in e.g. histone H4. A peptide of 17 amino acids derived from histone H4 was labeled with tetramethylrhodamine (TAMRA, fluorophore, Invitrogen) at the C-terminus and QSY-7™ (quencher dye, Invitrogen) at the N-terminus and was used as a substrate (TAMRA-first 17 aa of histone H4-QSY7). Following deacetylation by HDAC, the enzyme Lys C is able to cleave the peptide after lysine. […] Inhibition of HDAC by compounds results in low signals because Lys C could not cleave the substrate and the quench effect persists.
For dose response curves, 10 concentrations were diluted 1:3 starting at 30 μM. 10 μl compound dilution were put into each well of a 384 well plate. 10 μl HDAC were added (recombinant HDAC-1 purified from HEK 293 cells (human embryonic kidney cell line transformed by Adenovirus 5 fragments, ATCC-No. CRL 1573); enzyme activity has to be assessed for each preparation). 10 μl peptide substrate was added (1 μM final concentration, derived from 1 mM stock solution diluted 1:1000 in test buffer). After 90 min incubation at room temperature, the reaction was stopped by addition of 20 μl test buffer including 3 μg/ml Lys C and 0.075% Sodium Dodecyl Sulfate (SDS). After overnight incubation the fluorescence signal of TAMRA was measured (Victor 2 from Wallac, absorption 544 nm, emission 590 nm). The O.D. of DMSO (dimethylsulfoxide)-treated control wells is 100%, the % inhibition of compound treated wells is calculated in relation to 100%. Based on 10 concentrations an IC50 curve is generated by using XLfit3 (XLfit software (ID Business Solution Ltd., Guilford, Surrey, UK)).
Test buffer used: a mixture of 10 mM 4-(2-hydroxyethyl)-1-piperazineethanesulfonic acid (HEPES) pH8, 10 mM NaCl, 10% Glycerol, 0.005% Triton X100™, 0.1 mM ethylenediaminetetraacetic acid (EDTA), 0.1 mM Tris(2-carboxyethyl)phosphine (TCEP). Used plates: 384 well plates (black, Greiner, 781077).
Turning to `CC(NC(=O)c1ccc(C(=O)NO)s1)c1ccc(-c2ccc(N(C)C)cc2)cc1` (stereo not drawn) [Example 1-2, Thiophene-2,5-dicarboxylic acid 2-{[1-(4′-dimethylamino-biphenyl-4-yl)-ethyl]-amide} 5-hydroxyamide], the IC50 was in the range of 3 to 6 nM.

Take `CC(NC(=O)c1ccc(C(=O)NO)s1)c1cccc(-c2ccc(F)cc2)c1` (stereo not drawn) [Example 2-8, Thiophene-2,5-dicarboxylic acid 2-{[1-(4′-fluoro-biphenyl-3-yl)-ethyl]-amide} 5-hydroxyamide]: the IC50 turned out to be 2.52 nM.

Take `CC(NC(=O)c1ccc(C(=O)NO)s1)c1cccc(-c2cn[nH]c2)c1` (stereo not drawn) [Example 2-18, Thiophene-2,5-dicarboxylic acid 2-hydroxyamide 5-({1-[3-(1H-pyrazol-4-yl)-phenyl]-ethyl}-amide)]: the IC50 was less than 3 nM.

Consider `CC(NC(=O)c1ccc(C(=O)NO)s1)c1ccc(-c2cccc(F)c2)s1` (stereo not drawn) [Example 3-9, Thiophene-2,5-dicarboxylic acid 2-({1-[5-(3-fluoro-phenyl)-thiophen-2-yl]-ethyl}-amide) 5-hydroxyamide], for which the IC50 was 3 to 6 nM.

Consider `CC(NC(=O)c1ccc(C(=O)NO)s1)c1ccc(-c2ccccc2F)s1` (stereo not drawn) [Example 3-12, Thiophene-2,5-dicarboxylic acid 2-({1-[5-(2-fluoro-phenyl)-thiophen-2-yl]-ethyl}-amide) 5-hydroxyamide], for which the IC50 came out at 4.11 nM.

For the molecule `C[C@@H](NC(=O)c1ccc(C(=O)NO)s1)c1ccc(N2CCOCC2)cc1` [Example 4-1, (R)-Thiophene-2,5-dicarboxylic acid 2-hydroxyamide 5-{[1-(4-morpholin-4-yl-phenyl)-ethyl]-amide}], the IC50 lay in the range of 3 to 6 nM.

As for `CC(NC(=O)c1ccc(C(=O)NO)s1)c1ccc(N2CCCCC2)cc1` (stereo not drawn) [Example 4-3, Thiophene-2,5-dicarboxylic acid 2-hydroxyamide 5-{[1-(4-piperidin-1-yl-phenyl)-ethyl]-amide}], the IC50 was less than 3 nM.

As to `CC(NC(=O)c1ccc(C(=O)NO)s1)c1ccccc1` (stereo not drawn) [Reference compound, reference compound], the IC50 came out at 3.12 nM.

Another assay concerns HT-29 cells (human colon carcinoma cell line). The experiment in a line: MTT assay on HT-29 human colon carcinoma cell line. In kind it is cell-based. The settings on record: Homo sapiens, 120 h, MTT assay after 5 days, read-out: IC90 HT29. As for the experimental part: To show the activity of the compounds according to this invention, their effects on a human colon carcinoma cell line was evaluated using a standard MTT-assay. MTT (3-(4,5-dimethylthiazol-2-yl)-2,5-diphenyl tetrazolium bromide) is widely used for the quantitative determination of cytotoxic effects or in vitro chemosensitivity of tumor cells. The assay is based on the cleavage of the yellow tetrazolium salt (MTT) to purple formazan crystals by metabolic active cells. For details, see Rubinstein, L. V., et al., J. Natl. Cancer Inst. 82 (1990) 1113-1118.
We proceeded as follows: HT-29 cells (human colon carcinoma cell line, ATCC-No. HTB-38) were cultivated in RPMI 1640 medium with GlutaMAX™ I (Invitrogen, Cat-No. 61870-010), 2.5% fetal calf serum (FCS, Sigma Cat-No. F4135 (FBS)), 2 mM glutamine, 100 units/ml penicillin, 100 μg/ml streptomycin (=Pen/Strep from Invitrogen Cat. No. 15140). For the assay the cells were seeded in 384 well plates, 900 cells per well, in the same medium. At the next day, the compounds (dissolved 10 mM in DMSO) were added in various concentrations ranging from 30 μM to 1.5 nM. After 5 days, the MTT assay was done mainly according to the instructions of the manufacturer (Cell proliferation kit I, MTT, from Roche Molecular Biochemicals). In brief: MTT labeling reagent was added to a final concentration of 0.5 mg/ml, added and incubated for 4 hrs at 37° C., 5% CO2. During this incubation time purple formazan crystals are formed. After addition of the solubilization solution (20% Sodium Dodecyl Sulfate (SDS) in 0.02 M HCl) the plates were incubated overnight at 37° C., 5% CO2. After careful mixing, the plates were measured in Victor 2 (scanning multiwell spectrophotometer, Wallac) at 550 nm.
A decrease in number of living cells results in a decrease in the total metabolic activity in the sample. The decrease directly correlates to the amount of purple colour resulting from the solubilization of the purple formazan crystals. Determination of IC90 was done using XL-fit (XLfit software (ID Business Solution Ltd., Guilford, Surrey, UK)).
As to `CC(NC(=O)c1ccc(C(=O)NO)s1)c1cccc(-c2ccc(F)cc2)c1` (stereo not drawn) [Example 2-8, Thiophene-2,5-dicarboxylic acid 2-{[1-(4′-fluoro-biphenyl-3-yl)-ethyl]-amide} 5-hydroxyamide], the IC90 lay within 100 to 500 nM.

With `CC(NC(=O)c1ccc(C(=O)NO)s1)c1ccccc1` (stereo not drawn) [Reference compound, reference compound], the IC90 turned out to be 1120 nM.

The assay is the same for the next values; noted with them: MTT assay after 5 days, read-out: IC90 HT29.
With `CC(NC(=O)c1ccc(C(=O)NO)s1)c1cccc(-c2cc3ccccc3s2)c1` (stereo not drawn) [Example 2-14, Thiophene-2,5-dicarboxylic acid 2-{[1-(3-benzo[b]thiophen-2-yl-phenyl)-ethyl]-amide} 5-hydroxyamide], the IC90 was found to be 70 nM.

For the molecule `COc1ccccc1-c1ccc(C(C)NC(=O)c2ccc(C(=O)NO)s2)s1` (stereo not drawn) [Example 3-1, Thiophene-2,5-dicarboxylic acid 2-hydroxyamide 5-({1-[5-(2-methoxy-phenyl)-thiophen-2-yl]-ethyl}-amide)], the IC90 was determined as 110 nM.
